Patent US20100183625A1, “Treatment of Mucositis with Kallikrein Inhibitors” (Dyax Corp., priority 2009, published 2010)
Positions of bridges follow the written chain, without caps; N, C: chain ends. No end group written: not given here.

Assays:
[1] = biological target: plasma kallikrein (NP_000883) (Homo sapiens, UniProt P03952); details: cited from earlier work
[2] = Lot 100808, phosphate buffered saline, pH 7.0, 5.6 mg/mL
pKal = pKal (Homo sapiens, UniProt P03952); details: read-out: Ki,app; active site inhibitor of pKal; cited from earlier work
Chain of pKal (P03952 20-638): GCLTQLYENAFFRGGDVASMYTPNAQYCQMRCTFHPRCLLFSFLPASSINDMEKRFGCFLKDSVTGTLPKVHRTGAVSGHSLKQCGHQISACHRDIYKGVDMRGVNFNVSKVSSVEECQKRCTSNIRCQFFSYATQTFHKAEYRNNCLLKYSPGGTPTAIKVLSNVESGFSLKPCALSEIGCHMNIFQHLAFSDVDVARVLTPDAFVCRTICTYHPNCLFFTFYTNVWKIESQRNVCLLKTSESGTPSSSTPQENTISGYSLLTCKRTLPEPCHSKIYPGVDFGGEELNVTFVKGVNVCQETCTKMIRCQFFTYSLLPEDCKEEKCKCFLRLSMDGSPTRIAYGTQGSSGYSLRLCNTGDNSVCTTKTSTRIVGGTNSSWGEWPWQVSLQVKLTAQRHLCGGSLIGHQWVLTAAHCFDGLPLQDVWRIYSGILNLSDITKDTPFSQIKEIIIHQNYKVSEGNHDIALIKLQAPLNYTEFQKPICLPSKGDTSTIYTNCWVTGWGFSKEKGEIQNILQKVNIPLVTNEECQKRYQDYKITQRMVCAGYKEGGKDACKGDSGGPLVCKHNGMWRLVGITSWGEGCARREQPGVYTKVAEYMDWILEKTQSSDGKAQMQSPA

Chain of plasma kallikrein (NP_000883) (P03952 20-638): as above

Sequence | Ki [1] | Stability [2] | Ki (pKal)
EAMHSFCAFKADDGPCRAAHPRWFFNIFTRQCEEFIYGGCEGNQNRFESLEECKKMCTRD (disulfide 7-57, 16-40, 32-53) [DX-88] | < 1000 pM | – | –
EAMHSFCAFKADDGPCRAAHPRWFFNIFTRQCEEFSYGGCGGNQNRFESLEECKKMCTRD (disulfide 7-57, 16-40, 32-53) [EPI-KAL2] | – | Stable for 24 hours at 2-4 °C | 100 pM
